# Laboratory results published in PubChem BioAssay AID248 (DTP/NCI, 2004).
# Where “and” joins values, the source holds several entries; their conditions need not be identical. Equal values may be shown once. Toxic doses and inconclusive results are not listed.
# System: L1210 leukemia ip in BDF1 mice, survival T/C
# Experiment: NCI In Vivo Anticancer Drug Screen. Data for tumor model L1210 Leukemia (intraperitoneal) in B6D2F1 (BDF1) mice
# Conditions: higher = longer survival
# Outline: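 Survival endpoint. Drug-treated group vs vehicle group, expressed as T divided by C. Tumor passaged by transplantation.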
compound,measurement,setting,value
COc1ccc(C(=O)CCC(=O)O)c2ccccc12,T/C,"endpoint: mean survival time, dose: 100.0 mg/kg/injection, schedule: Q04DX003 (ip), vehicle: Klucel (hydroxypropylcellulose) (HPC)",92 % of control
same,T/C,"endpoint: mean survival time, dose: 200.0 mg/kg/injection, schedule: Q04DX003 (ip), vehicle: Klucel (hydroxypropylcellulose) (HPC)",93 % of control
same,T/C,"endpoint: mean survival time, dose: 400.0 mg/kg/injection, schedule: Q04DX003 (ip), vehicle: Klucel (hydroxypropylcellulose) (HPC)",88 % of control
Nc1c(Oc2cccc(C[N+]3(CCOS(=O)(=O)O)CC3)c2)cc(O)c2c1C(=O)c1ccccc1C2=O,T/C,"endpoint: mean survival time, dose: 100.0 mg/kg/injection, schedule: Q01DX001 (ip), vehicle: carboxymethylcellulose (CMC)",96 % of control
same,T/C,"endpoint: mean survival time, dose: 200.0 mg/kg/injection, schedule: Q01DX001 (ip), vehicle: carboxymethylcellulose (CMC)",93 % of control
CC1=CCC(=C(C)C)C1C(=O)NC1CCCCC1 (configuration not stated),T/C,"endpoint: mean survival time, dose: 100.0 mg/kg/injection, schedule: Q01DX001 (ip), vehicle: saline",97 % of control
same,T/C,"endpoint: mean survival time, dose: 100.0 mg/kg/injection, schedule: Q01DX009 (ip), vehicle: propolene glycol",105 % of control
same,T/C,"endpoint: mean survival time, dose: 200.0 mg/kg/injection, schedule: Q01DX009 (ip), vehicle: propolene glycol",109 % of control
same,T/C,"endpoint: mean survival time, dose: 400.0 mg/kg/injection, schedule: Q01DX001 (ip), vehicle: saline",100 % of control
same,T/C,"endpoint: mean survival time, dose: 400.0 mg/kg/injection, schedule: Q01DX009 (ip), vehicle: propolene glycol",106 % of control
CCCCCCCCC/C=N\N=C(N)N,T/C,"endpoint: mean survival time, dose: 15.0 mg/kg/injection, schedule: Q01DX Z (ip), vehicle: carboxymethylcellulose (CMC)",101 % of control
same,T/C,"endpoint: mean survival time, dose: 30.0 mg/kg/injection, schedule: Q01DX Z (ip), vehicle: carboxymethylcellulose (CMC)",108 % of control
same,T/C,"endpoint: mean survival time, dose: 60.0 mg/kg/injection, schedule: Q01DX Z (ip), vehicle: carboxymethylcellulose (CMC)",97 % of control
same,T/C,"endpoint: mean survival time, dose: 120.0 mg/kg/injection, schedule: Q01DX Z (ip), vehicle: carboxymethylcellulose (CMC)",103 % of control and 104 % of control
same,T/C,"endpoint: mean survival time, dose: 120.0 mg/kg/injection, schedule: Q01DX Z (oral), vehicle: carboxymethylcellulose (CMC)",104 % of control
same,T/C,"endpoint: mean survival time, dose: 240.0 mg/kg/injection, schedule: Q01DX Z (ip), vehicle: carboxymethylcellulose (CMC)",100 % of control
same,T/C,"endpoint: mean survival time, dose: 240.0 mg/kg/injection, schedule: Q01DX Z (oral), vehicle: carboxymethylcellulose (CMC)",104 % of control
same,T/C,"endpoint: mean survival time, dose: 480.0 mg/kg/injection, schedule: Q01DX Z (oral), vehicle: carboxymethylcellulose (CMC)",102 % of control
same,T/C,"endpoint: mean survival time, dose: 960.0 mg/kg/injection, schedule: Q01DX Z (oral), vehicle: carboxymethylcellulose (CMC)",104 % of control
N#C/C(=C\c1cccc(N)c1)c1ccccc1,T/C,"endpoint: mean survival time, dose: 100.0 mg/kg/injection, schedule: Q01DX001 (ip), vehicle: saline with Tween-80",100 % of control
same,T/C,"endpoint: mean survival time, dose: 200.0 mg/kg/injection, schedule: Q01DX001 (ip), vehicle: saline with Tween-80",95 % of control
OCC1OC(n2cnc3c(=S)nc[nH]c32)C(O)C1O (configuration not stated),T/C,"endpoint: mean survival time, dose: 4.69 mg/kg/injection, schedule: Q01DX009 (ip), vehicle: water",103 % of control
same,T/C,"endpoint: mean survival time, dose: 9.38 mg/kg/injection, schedule: Q01DX009 (ip), vehicle: water",109 % of control
same,T/C,"endpoint: mean survival time, dose: 10.0 mg/kg/injection, schedule: Q01DX009 (ip), vehicle: saline",117 % of control and 120 % of control
same,T/C,"endpoint: mean survival time, dose: 14.02 mg/kg/injection, schedule: Q01DX Z (ip), vehicle: carboxymethylcellulose (CMC)",121 % of control
same,T/C,"endpoint: mean survival time, dose: 17.88 mg/kg/injection, schedule: Q01DX Z (ip), vehicle: carboxymethylcellulose (CMC)",119 % of control
same,T/C,"endpoint: mean survival time, dose: 18.25 mg/kg/injection, schedule: Q01DX Z (ip), vehicle: carboxymethylcellulose (CMC)",122 % of control
same,T/C,"endpoint: mean survival time, dose: 18.75 mg/kg/injection, schedule: Q01DX009 (ip), vehicle: water",117 % of control
same,T/C,"endpoint: mean survival time, dose: 20.0 mg/kg/injection, schedule: Q01DX010 (ip), vehicle: saline",111 % of control
same,T/C,"endpoint: mean survival time, dose: 23.83 mg/kg/injection, schedule: Q01DX Z (ip), vehicle: carboxymethylcellulose (CMC)",115 % of control
same,T/C,"endpoint: mean survival time, dose: 35.75 mg/kg/injection, schedule: Q01DX Z (ip), vehicle: carboxymethylcellulose (CMC)",123 % of control
same,T/C,"endpoint: mean survival time, dose: 36.5 mg/kg/injection, schedule: Q01DX Z (ip), vehicle: carboxymethylcellulose (CMC)",123 % of control
same,T/C,"endpoint: mean survival time, dose: 37.5 mg/kg/injection, schedule: Q01DX009 (ip), vehicle: water",112 % of control
same,T/C,"endpoint: mean survival time, dose: 37.5 mg/kg/injection, schedule: Q01DX Z (ip), vehicle: carboxymethylcellulose (CMC)",100 % of control
same,T/C,"endpoint: mean survival time, dose: 50.0 mg/kg/injection, schedule: Q01DX009 (ip), vehicle: saline",121 % of control
same,T/C,"endpoint: mean survival time, dose: 75.0 mg/kg/injection, schedule: Q01DX015 (ip), vehicle: carboxymethylcellulose (CMC)",151 % of control
same,T/C,"endpoint: mean survival time, dose: 75.0 mg/kg/injection, schedule: Q01DX Z (ip), vehicle: carboxymethylcellulose (CMC)",113 % of control
same,T/C,"endpoint: mean survival time, dose: 100.0 mg/kg/injection, schedule: Q01DX005 (ip), vehicle: saline",123 % of control
same,T/C,"endpoint: mean survival time, dose: 100.0 mg/kg/injection, schedule: Q01DX009 (ip), vehicle: carboxymethylcellulose (CMC)",114 % of control
same,T/C,"endpoint: mean survival time, dose: 107.25 mg/kg/injection, schedule: Q01DX Z (ip), vehicle: carboxymethylcellulose (CMC)",152 % of control
same,T/C,"endpoint: mean survival time, dose: 120.0 mg/kg/injection, schedule: Q01DX001 (ip), vehicle: carboxymethylcellulose (CMC)",98 % of control
same,T/C,"endpoint: mean survival time, dose: 125.0 mg/kg/injection, schedule: Q03HX024 (ip), vehicle: saline",114 % of control
same,T/C,"endpoint: mean survival time, dose: 150.0 mg/kg/injection, schedule: Q## X Z (ip), vehicle: carboxymethylcellulose (CMC)",107 % of control
same,T/C,"endpoint: mean survival time, dose: 160.0 mg/kg/injection, schedule: Q01DX010 (ip), vehicle: saline",153 % of control and 155 % of control
same,T/C,"endpoint: mean survival time, dose: 180.0 mg/kg/injection, schedule: Q01DX001 (ip), vehicle: alkali diluted with saline",108 % of control
same,T/C,"endpoint: mean survival time, dose: 180.0 mg/kg/injection, schedule: Q01DX001 (ip), vehicle: carboxymethylcellulose (CMC)",118 % of control
same,T/C,"endpoint: mean survival time, dose: 188.0 mg/kg/injection, schedule: Q03HX024 (ip), vehicle: clinical formulation",104 % of control
same,T/C,"endpoint: mean survival time, dose: 188.0 mg/kg/injection, schedule: Q03HX024 (ip), vehicle: saline",115 % of control
same,T/C,"endpoint: mean survival time, dose: 200.0 mg/kg/injection, schedule: Q01DX009 (ip), vehicle: saline",163 % of control and 181 % of control
same,T/C,"endpoint: mean survival time, dose: 270.0 mg/kg/injection, schedule: Q01DX001 (ip), vehicle: alkali diluted with saline",119 % of control
same,T/C,"endpoint: mean survival time, dose: 270.0 mg/kg/injection, schedule: Q01DX001 (ip), vehicle: carboxymethylcellulose (CMC)",114 % of control
same,T/C,"endpoint: mean survival time, dose: 300.0 mg/kg/injection, schedule: Q03HX024 (ip), vehicle: saline",95 % of control and 108 % of control
same,T/C,"endpoint: mean survival time, dose: 320.0 mg/kg/injection, schedule: Q01DX009 (ip), vehicle: saline",152 % of control and 166 % of control
same,T/C,"endpoint: mean survival time, dose: 600.0 mg/kg/injection, schedule: Q01DX001 (ip), vehicle: alkali diluted with saline",120 % of control
same,T/C,"endpoint: mean survival time, dose: 600.0 mg/kg/injection, schedule: Q## X Z (ip), vehicle: carboxymethylcellulose (CMC)",93 % of control
same,T/C,"endpoint: mean survival time, dose: 800.0 mg/kg/injection, schedule: Q01DX001 (ip), vehicle: saline",103 % of control
same,T/C,"endpoint: mean survival time, dose: 800.0 mg/kg/injection, schedule: Q01DX009 (ip), vehicle: carboxymethylcellulose (CMC)",122 % of control
same,T/C,"endpoint: mean survival time, dose: 1000.0 mg/kg/injection, schedule: Q## X Z (ip), vehicle: carboxymethylcellulose (CMC)",121 % of control
same,T/C,"endpoint: mean survival time, dose: 1200.0 mg/kg/injection, schedule: Q01DX001 (ip), vehicle: saline",107 % of control
same,T/C,"endpoint: mean survival time, dose: 1600.0 mg/kg/injection, schedule: Q01DX001 (ip), vehicle: saline",114 % of control
same,T/C,"endpoint: median survival time, dose: 50.0 mg/kg/injection, schedule: Q03HX024 (ip), vehicle: other",155 % of control
same,T/C,"endpoint: median survival time, dose: 100.0 mg/kg/injection, schedule: Q03HX024 (ip), vehicle: other",155 % of control
same,T/C,"endpoint: median survival time, dose: 100.0 mg/kg/injection, schedule: Q03HX024 (sc), vehicle: other",150 % of control
same,T/C,"endpoint: median survival time, dose: 200.0 mg/kg/injection, schedule: Q03HX024 (ip), vehicle: other",155 % of control
same,T/C,"endpoint: median survival time, dose: 200.0 mg/kg/injection, schedule: Q03HX024 (sc), vehicle: other",155 % of control
same,T/C,"endpoint: median survival time, dose: 400.0 mg/kg/injection, schedule: Q03HX024 (ip), vehicle: other",111 % of control
same,T/C,"endpoint: median survival time, dose: 800.0 mg/kg/injection, schedule: Q01DX001 (ip), vehicle: other",111 % of control
same,T/C,"endpoint: median survival time, dose: 800.0 mg/kg/injection, schedule: Q01DX001 (sc), vehicle: other",111 % of control
same,T/C,"endpoint: median survival time, dose: 800.0 mg/kg/injection, schedule: Q04DX003 (ip), vehicle: other",122 % of control
same,T/C,"endpoint: median survival time, dose: 800.0 mg/kg/injection, schedule: Q04DX003 (sc), vehicle: other",122 % of control
same,T/C,"endpoint: median survival time, dose: 1600.0 mg/kg/injection, schedule: Q01DX001 (ip), vehicle: other",116 % of control
same,T/C,"endpoint: median survival time, dose: 1600.0 mg/kg/injection, schedule: Q01DX001 (sc), vehicle: other",116 % of control
same,T/C,"endpoint: median survival time, dose: 3200.0 mg/kg/injection, schedule: Q01DX009 (sc), vehicle: other",100 % of control
same,T/C,"endpoint: median survival time, dose: 3200.0 mg/kg/injection, schedule: Q04DX003 (sc), vehicle: other",150 % of control
CC(CCOS(C)(=O)=O)OS(C)(=O)=O (configuration not stated),T/C,"endpoint: mean survival time, dose: 100.0 mg/kg/injection, schedule: Q04DX003 (ip), vehicle: saline with Tween-80",112 % of control
same,T/C,"endpoint: mean survival time, dose: 200.0 mg/kg/injection, schedule: Q04DX003 (ip), vehicle: saline with Tween-80",107 % of control
same,T/C,"endpoint: mean survival time, dose: 400.0 mg/kg/injection, schedule: Q04DX003 (ip), vehicle: saline with Tween-80",88 % of control
